# Literature values in PMC7590008, “Slow Dissolution Kinetics of Model Peptide Fibrils” (International Journal of Molecular Sciences, 2020).
# Where a name gives a salt, the structure may show the parent alone.
# Conditions: can be considered a strong acid
# From the text: First of all, for c<cs , the pH ≈6.3 is essentially the same as that of pure water (with some dissolved CO 2 ). This means that the A 8 K is a neutral salt and not a net acid or base. This implies that we can write the compound as PH ^+ TFA ^− , where P stands for the A 8 K peptide. The dry compound is a TFA salt, but with only one TFA counterion, because the carboxyl group is neutralized by one of the two ammonium groups ...
smiles,measurement,value
"O=C(O)C(F)(F)F [TFA, Trifluoroacetate]",pK a,≈ 1
